From patent US6635629B2, “3-nitrogen-6,7-dioxygen steroids and uses related thereto” (Inflazyme Pharmaceuticals Ltd., priority 2000, dated 2003)
pIC50: −log10 of the molar value. Values joined by “and” are separate entries in the source; they are usually repeats but may differ in a detail not shown here. Equal entries are not always repeated.

Legend:
[1] = tested on: rat mast cell line (RBL-2H3); experiment: Antigen-induced release of hexosaminidase from a rat mast cell line (RBL-2H3); assay type: cell-based; conditions: inhibition of DNP-HSA antigen-induced hexosaminidase release; tested at 0.3, 3, 10 and 30 μM; read-out: Hex IC50
Experimental: The anti-allergic effects of a compound of the present invention was evaluated by measuring its effect on antigen-induced secretion of hexosaminidase from a passively sensitized rat mast cell line. The ability of a test compound to inhibit the release of mast cell granule contents, e.g., histamine and hexosaminidase, is indicative of the anti-allergy and/or anti-asthma activity of the compound. Hexosaminidase is released from the mast cell granule along with histamine and other mediators during antigen challenge. The test is performed as follows.
RBL-2H3 cells are grown in culture and passively sensitized for 1 hour at 37° C. to dinitrophenol (DNP) using anti-human-DNP (IgE). Cells are incubated with test compound for 30 minutes at 37° C. and stimulated with 0.5 μg/ml DNP-HSA (antigen) for 30 minutes. Aliquots of the supernatant are removed and used to measure the amount of hexosaminidase released during challenge with the antigen. […] The effect of each test compound is determined as a percentage of the antigen-induced response (minus background release) obtained in the presence of DMSO alone. These values are used to determine the degrees of inhibition of antigen-induced hexosaminidase release from the cells.

Jurkat clone E6.1 cells = experiment: Antigen-induced (anti-CD3 mAb) calcium flux in Jurkat clone E6.1 cells; assay type: cell-based; conditions: 20 μM; anti-CD3 mAb 4 μg/mL; Fura 2AM
Excerpt: Elevation of cytoplasmic calcium concentration is a common and crucial event which follows the activation of many types of cell surface receptors. Increases in intracellular calcium that occur following agonist activation of inositol lipid hydrolysis are the results of calcium release from the endoplasmic reticulum and the influx of calcium through the plasma membrane. Increases in cytosolic calcium concentration are involved in many important cellular responses in the inflammatory process including adhesion, motility, gene expression, proliferation, and degranulation. Changes in intracellular calcium centrations can affect both short and long term cellular responses. An assay method to evaluate a test compound's impact on calcium flux is provided as follows.
The resulting supernatants are discarded and each pellet is washed in 10 mL HBSS. Cell suspensions are accumulated and centrifuged for 5 minutes at 900 RPM to form a cell pellet. The resulting supernatant is discarded and the pellet is resuspended in HBSS at 1×10^7 cells/mL. The cell suspension is transferred to a 20 mm petri dish and incubated at 37° C., 5% CO2 for 20 minutes.
One volume of Fura 2AM is mixed to one volume of detergent Pluronic F127. Cells are labeled with 4 μL of probe solution to each mL of cell suspension. The petri dish is wrapped in aluminum foil to protect from light and placed on a plate shaker for 30 minutes at room temperature.
The following steps are done in the laminar flow hood with the fluorescent lights turned off. The petri dish is removed from the shaker and the labeled cell suspension is transferred to a 15 mL conical tube and washed twice with HBSS as above. The cell pellet is resuspended in 12 mL HBSS and left wrapped in foil for 30 minutes at room temperature. The labeled cell suspension is aliquoted (100 μL/well) into a Dynex 96 well white opaque tissue culture plate. […] Selected compounds were tested for dose related activity. Test samples and activator (anti—CD3 mAb at final concentration of 4 μg/mL, PharMingen) are added manually (50 μL), such that the minimum time to acquire the first data point after stimulation is approximately 30 seconds. The calcium influx response to anti-CD3 mAb is measured as an “end point” assay. The entire plate is read in 100 seconds using a kinetic of 1 second per well.
The plate is read before the addition of anti-CD3 to monitor non-specific effect of samples/drugs. Fluorescence emission is measured at 510 nm with excitation alternating between 340 and 380 every second using an excitation/emission filter pair. Data from these dual wavelengths are represented as a ratio of 2 excitations wavelengths. This ratio is independent of intracellular dye and cell concentrations, enabling real comparison between experiments.

[2] = tested on: sensitized Brown Norway rats; experiment: Ovalbumin-induced accumulation of inflammatory cells in lung lavage fluid of sensitized Brown Norway rats; assay type: in vivo, rat; conditions: p.o.
Experimental: The ability of a compound to inhibit the allergen-induced accumulation of inflammatory cells such as eosinophils and neutrophils in the lavage fluid obtained from sensitized animals is indicative of that compound's anti-asthma activity. […] The test is conducted as follows.
Male Brown Norway rats are sensitized to ovalbumin by single intraperitoneal injection of 1 mg ovalbumin adsorbed to 100 mg A(OH)3 (alum) in 1 ml sterile saline (saline control rats receive only sterile saline) on day 1, and allowed to sensitize until day 21. […] Rats are challenged with 0.5% ovalbumin in saline generated using a Devillbis nebulizer for 60 min on day 21.
Forty-eight hrs after challenge, animals are sacrificed with an overdose of intraperitoneally-delivered sodium pentobarbitol and the lungs are lavaged with cold 2×7 ml phosphate buffered saline. The recovered lavage fluid is placed on ice. The bronchoalveolar lavage fluid is centrifuged and the supernatant removed. The pellet is resuspended in phosphate buffered saline at 4° C. Cytospins are prepared and stained for differentiation and enumeration of cell types.
Test compound was administered in 300 μl corn oil (Tables 7 and 8) or water (Table 9), which were used as vehicles. Control animals received 300 μl corn oil or water alone, i.e., no drug. […] A negative value in Table 7, 8, or 9 indicates an exacerbation of the effect over the control animal.

[3] = Metabolic stability in human liver S9 fractions; assay type: in vitro ADME; conditions: 10 μM
Excerpt: The therapeutic effectiveness of a test compound can be often directly related to its metabolic stability in vivo. The majority of known, marketed drugs are metabolized by a group of enzymes known as P450 enzymes. The S9 fraction of human liver contains all the P450 enzymes and also cytoplasmic enzymes that may be involved in the metabolism of new chemical entities. Metabolism in vitro using human S9 fractions is a standard assay to evaluate relative metabolic stability of new compounds. The test is performed as follows.
Reagents are thawed on ice and combined to make up a Master Mix as follows: Potassium phosphate (100 mM, pH 7), G6P (0.25 mM), G6PDH (2 U/ml), NADPH (1 mM), UDP (0.25 mM), APPS (0.25 mM), and S9 fraction (2 mg/ml). A volume of 498 μl of the Master mix is dispensed into each microcentrifuge tube. A volume of 2 μl of 2.5 mM test compound (final concentration of 10 μM) is dispensed into the center of the lid of the appropriate tube, and the lids gently closed to prevent mixing. Synchronous combination of test compound and master mix is achieved by simultaneous ten times inversion of the tubes, which are then incubated at 37° C. and shaken at 150 rpm for the appropriate incubation times. While incubation is in progress, all 0 time samples are mixed individually by three times inversion followed by the immediate addition of 500 μl ice cold acetonitrile with three times inversion to stop the reaction. Immediately after each 15 minutes and 30 minutes incubation is complete, ice cold acetonitrile is added to each tube and the tubes mixed by three times inversion. All sample tubes are incubated at −80° C. for a minimum of 15 minutes, thawed and remixed by inversion. Aliquots of 650 μl are transferred to Chromatographic Specialties micro-spin filter system tubes (0.2 μm nylon membrane, C618505) and centrifuged at 13,000 rpm for 48 seconds. The sample filtrates are stored at −80° C.
Sample filtrates are analyzed on LCMS, and percent remaining after 15 and 30 minute incubation is calculated relative to the 0 minute incubation.
The metabolic stability of various compounds are summarized in Table 10 as the percent remaining after 15 or 30 minutes incubation with human liver S9 fractions.

[4] = 5 mg/kg/day for 4 days, corn oil vehicle, relative to control animals
[5] = 1 mg/kg/day for 4 days, corn oil vehicle, relative to control animals
[6] = 37° C., 15 min incubation, relative to 0 minute incubation
[7] = 37° C., 30 min incubation, relative to 0 minute incubation
[8] = 0.1 mg/kg, 4 days qd, water vehicle
[9] = 0.3 mg/kg, 4 days qd, water vehicle
[10] = 1 mg/kg, 4 days qd, water vehicle

Structure (SMILES)	pIC50 [1]	Calcium (% inhibition at 20 μM) (Jurkat clone E6.1 cells)	% remaining after 15 min ([3]; human, s9, 15 min, pH 7)	% remaining after 30 min ([3]; human, s9, 30 min, pH 7)	% inhibition of eosinophils [2, 5]	% inhibition of lymphocytes [2, 5]	% inhibition of neutrophils [2, 5]	% remaining after 15 min [3, 6]	% remaining after 30 min [3, 7]	also measured
CC=C1CCC2C3C(CC[C@]12C)[C@@]1(C)CCC(N)CC1[C@@H](O)[C@@H]3O (stereo partly shown) [Compound 49]	4.96	26.8%	93 ± 6%	85 ± 8%	–	–	–	–	–	% inhibition of eosinophils [2, 4]: 52%; % inhibition of lymphocytes [2, 4]: 73%; % inhibition of neutrophils [2, 4]: 36%
CC(F)=C1CCC2C3C(CC[C@]12C)[C@@]1(C)CCC(N)CC1[C@@H](O)[C@@H]3O (stereo partly shown) [Compound 64]	–	–	104 ± 4%	88 ± 5%	–	–	–	–	–	% inhibition of eosinophils [2, 4]: 62%; % inhibition of lymphocytes [2, 4]: 81%; % inhibition of neutrophils [2, 4]: 70%
COC(=O)C=C1CCC2C3C(CC[C@]12C)[C@@]1(C)CCC(N)CC1[C@@H](O)[C@@H]3O (stereo partly shown) [Compound 69]	–	–	73 ± 24%	63 ± 6%	–	–	–	–	–	–
C=C1CCC2C3C(CC[C@]12C)[C@@]1(C)CCC(N)CC1[C@@H](OC)[C@@H]3OC (stereo partly shown) [Compound 79]	4.74	9.1%	67 ± 6%	61 ± 14%	–	–	–	–	–	–
CCC1CCC2C3C(CC[C@]12C)[C@@]1(C)CCC(N)CC1[C@@H](O)[C@@H]3O (stereo partly shown) [Compound 96]	–	–	92 ± 19%	94 ± 21%	–	–	–	–	–	% inhibition of eosinophils [2, 4]: −9%; % inhibition of lymphocytes [2, 4]: 19%; % inhibition of neutrophils [2, 4]: 40%
CCC1CCC2C3C(CC[C@]12C)[C@@]1(C)CCC(N)CC1[C@@H](O)[C@@H]3O (stereo partly shown) [Compound 97]	5.03	43.0%	94 ± 10%	89 ± 12%	–	–	–	–	–	% inhibition of eosinophils [2, 4]: 40%; % inhibition of lymphocytes [2, 4]: 56%; % inhibition of neutrophils [2, 4]: 52%
C=C1CCC2C3C(O)C(O)C4CC(NCc5cccnc5)CCC4(C)C3CCC12C.Cl.Cl (stereo not shown) [Compound 107]	4.76	11.6%	–	–	−122%	−28%	23%	–	–	–
C=C1CCC2C3C(CC[C@]12C)[C@@]1(C)CC[C@@H](NC(=O)Nc2ccccc2)CC1[C@@H](O)[C@@H]3O (stereo partly shown) [Compound 137]	–	–	93 ± 31%	71 ± 17%	–	–	–	–	–	–
C=C1CCC2C3C(CC[C@]12C)[C@@]1(C)CC[C@@H](NC(=O)NCCC)CC1[C@@H](O)[C@@H]3O (stereo partly shown) [Compound 138]	4.82	9.0%	–	–	−52%	33%	35%	–	–	–
CC1(C)CCC2=C1CCC1C2[C@@H](O)[C@H](O)C2C[C@@H](N)CC[C@]12C (stereo partly shown) [Compound 139]	4.99	26.3%	–	–	–	–	–	100%	100%	–
CC1(C)CCC2=C1CCC1C2C(O)C(O)C2CC(NCc3ccc(F)c(F)c3)CCC21C.Cl (stereo not shown) [Compound 141]	5.03	36.3%	–	–	–	–	–	100 ± 9%	26 ± 4%	–
COc1ccc(CNC2CCC3(C)C(C2)C(O)C(O)C2C4=C(CCC23)C(C)(C)CC4)cc1OC.Cl (stereo not shown) [Compound 142]	4.80	13.8%	–	–	−131%	−42%	−1%	80 ± 11%	55 ± 2%	–
CCC1(C)CCC2=C1CCC1C2C(O)C(O)C2CC(N)CCC21C.Cl (stereo not shown) [Compound 143]	5.07	22.6%	–	–	–	–	–	100% and 100 ± 3%	100% and 99 ± 10%	% inhibition of eosinophils [2, 8]: 28%; % inhibition of lymphocytes [2, 8]: −43%; % inhibition of neutrophils [2, 8]: 57%; % inhibition of eosinophils [2, 9]: 29%; % inhibition of lymphocytes [2, 9]: −37%; % inhibition of neutrophils [2, 9]: 25%; % inhibition of eosinophils [2, 10]: 48%; % inhibition of lymphocytes [2, 10]: −22%; % inhibition of neutrophils [2, 10]: 64%
CCC1(C)CCC2=C1CCC1C2C(O)C(O)C2CC(NCc3ccccc3)CCC21C.Cl (stereo not shown) [Compound 146]	5.05	41.7%	–	–	8%	−27%	24%	82 ± 6%	63 ± 9%	–
CCC1(C)CCC2=C1CCC1C2C(O)C(O)C2CC(NCc3ccccc3)CCC21C.Cl (stereo not shown) [Compound 147]	4.74	36.3%	–	–	40%	36%	58%	–	–	–
